Experimental data as given in patent publication US20230123334A1, “AMINO LIPID COMPOUND, PREPARATION METHOD THEREFOR, AND APPLICATION THEREOF” (SHENZHEN SHENXIN BIOTECHNOLOGY CO., LTD., priority 2020, published 2023).

What was measured:
HEK293 cells [1] = assay: Preliminary screening as mRNA vectors, EGFP mRNA transfection of HEK293 cells; assay type: cell-based; details: HEK293 cells, 96-well plates, EGFP mRNA 50 ng per well; percentage of GFP fluorescent cells relative to total number of cells (Hoechst)
Procedure, shortened: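 Each well of HEK293 cells received 50 ng of EGFP mRNA. Efficiency was expressed as percent GFP-expressing cells over Hoechst-defined total cell number.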

HEK293 cells [2] = assay: Preliminary screening as DNA vectors, GFP transfection of HEK293 cells; assay type: cell-based; details: HEK293 cells; lipid/DOPE liposome with 75 ng plasmid DNA (psin-EGFP-IRES-Puro); number of cells expressing GFP divided by total number of nuclei (Hoechst)
Procedure, shortened: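 Lipid + DOPE liposomes (NaOAc, pH 5.6) complexed w/ 75 ng psin-EGFP-IRES-Puro, 30 min RT; added to 3-5×10^4 HEK293/well, 37° C. Hoechst 0.2 μg/mL at 20-24 h, imaged after further 20-24 h. Efficiency = GFP+ cells / total nuclei.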

SMILES	Absolute mRNA transfection efficiency in HEK293 cells (HEK293 cells [1])	Absolute DNA transfection efficiency in HEK293 cells (HEK293 cells [2])
CCCCCCCCCCCCCCCSc1nc(NCCCN2CCN(C)CC2)nc(SCCCCCCCCCCCC)n1 [Compound S12S15D9]	0.9%	2.0%
CCCCCCCCCCCCCCCSc1nc(NCC2CCN(C)CC2)nc(SCCCCCCCCCCCC)n1 [Compound S12S15D10]	43.1%	9.9%
CCCCCCCCCCCCCCCCSc1nc(NCCN(C)C)nc(SCCCCCCCCCCCC)n1 [Compound S12S16D1]	0.0%	0.6%
CCCCCCCCCCCCCCCCSc1nc(NCCN2CCOCC2)nc(SCCCCCCCCCCCC)n1 [Compound S12S16D2]	0.0%	0.0%
CCCCCCCCCCCCCCCCSc1nc(NCCN2CCCC2)nc(SCCCCCCCCCCCC)n1 [Compound S12S16D3]	0.1%	2.0%
CCCCCCCCCCCCCCCCSc1nc(NCCN2CCCCC2)nc(SCCCCCCCCCCCC)n1 [Compound S12S16D4]	6.3%	3.3%
CCCCCCCCCCCCCCCCSc1nc(NCCN2CCN(C)CC2)nc(SCCCCCCCCCCCC)n1 [Compound S12S16D5]	0.1%	0.1%
CCCCCCCCCCCCCCCCSc1nc(NCCCN(C)C)nc(SCCCCCCCCCCCC)n1 [Compound S12S16D6]	1.2%	2.7%
CCCCCCCCCCCCCCCCSc1nc(NCCN(CC)CC)nc(SCCCCCCCCCCCC)n1 [Compound S12S16D7]	0.0%	0.7%
CCCCCCCCCCCCCCCCSc1nc(NCCCN2CCOCC2)nc(SCCCCCCCCCCCC)n1 [Compound S12S16D8]	0.0%	0.2%
CCCCCCCCCCCCCCCCSc1nc(NCCCN2CCN(C)CC2)nc(SCCCCCCCCCCCC)n1 [Compound S12S16D9]	0.0%	0.5%
CCCCCCCCCCCCCCCCSc1nc(NCC2CCN(C)CC2)nc(SCCCCCCCCCCCC)n1 [Compound S12S16D10]	13.2%	7.3%
CCCCCCCCCCCCCCCCCCSc1nc(NCCN(C)C)nc(SCCCCCCCCCCCC)n1 [Compound S12S18D1]	0.0%	0.0%
CCCCCCCCCCCCCCCCCCSc1nc(NCCN2CCOCC2)nc(SCCCCCCCCCCCC)n1 [Compound S12S18D2]	0.0%	0.0%
CCCCCCCCCCCCCCCCCCSc1nc(NCCN2CCCC2)nc(SCCCCCCCCCCCC)n1 [Compound S12S18D3]	0.2%	2.1%
CCCCCCCCCCCCCCCCCCSc1nc(NCCN2CCCCC2)nc(SCCCCCCCCCCCC)n1 [Compound S12S18D4]	5.1%	2.6%
CCCCCCCCCCCCCCCCCCSc1nc(NCCN2CCN(C)CC2)nc(SCCCCCCCCCCCC)n1 [Compound S12S18D5]	0.0%	0.7%
CCCCCCCCCCCCCCCCCCSc1nc(NCCCN(C)C)nc(SCCCCCCCCCCCC)n1 [Compound S12S18D6]	0.1%	1.0%

SMILES	Absolute mRNA transfection efficiency in HEK293 cells (HEK293 cells [1])	Absolute DNA transfection efficiency in HEK293 cells (HEK293 cells [2])
CCCCCCCCCCCCCCCCCCSc1nc(NCCN(CC)CC)nc(SCCCCCCCCCCCC)n1 [Compound S12S18D7]	0.0%	0.7%
CCCCCCCCCCCCCCCCCCSc1nc(NCCCN2CCOCC2)nc(SCCCCCCCCCCCC)n1 [Compound S12S18D8]	0.0%	0.4%
CCCCCCCCCCCCCCCCCCSc1nc(NCCCN2CCN(C)CC2)nc(SCCCCCCCCCCCC)n1 [Compound S12S18D9]	0.0%	1.0%
CCCCCCCCCCCCCCCCCCSc1nc(NCC2CCN(C)CC2)nc(SCCCCCCCCCCCC)n1 [Compound S12S18D10]	7.7%	7.5%
CCCCCCCCCCCCCCSc1nc(NCCN(C)C)nc(SCCCCCCCCCCCCCC)n1 [Compound S14S14D1]	0.0%	0.1%
CCCCCCCCCCCCCCSc1nc(NCCN2CCOCC2)nc(SCCCCCCCCCCCCCC)n1 [Compound S14S14D2]	0.0%	0.0%
CCCCCCCCCCCCCCSc1nc(NCCN2CCCC2)nc(SCCCCCCCCCCCCCC)n1 [Compound S14S14D3]	0.1%	0.2%
CCCCCCCCCCCCCCSc1nc(NCCN2CCCCC2)nc(SCCCCCCCCCCCCCC)n1 [Compound S14S14D4]	0.8%	0.7%
CCCCCCCCCCCCCCSc1nc(NCCN2CCN(C)CC2)nc(SCCCCCCCCCCCCCC)n1 [Compound S14S14D5]	0.0%	0.0%
CCCCCCCCCCCCCCSc1nc(NCCCN(C)C)nc(SCCCCCCCCCCCCCC)n1 [Compound S14S14D6]	0.2%	0.2%
CCCCCCCCCCCCCCSc1nc(NCCN(CC)CC)nc(SCCCCCCCCCCCCCC)n1 [Compound S14S14D7]	2.8%	2.3%
CCCCCCCCCCCCCCSc1nc(NCCCN2CCOCC2)nc(SCCCCCCCCCCCCCC)n1 [Compound S14S14D8]	0.0%	0.0%
CCCCCCCCCCCCCCSc1nc(NCCCN2CCN(C)CC2)nc(SCCCCCCCCCCCCCC)n1 [Compound S14S14D9]	0.0%	0.0%
CCCCCCCCCCCCCCSc1nc(NCC2CCN(C)CC2)nc(SCCCCCCCCCCCCCC)n1 [Compound S14S14D10]	1.5%	0.9%
CCCCCCCCCCCCCCCSc1nc(NCCN(C)C)nc(SCCCCCCCCCCCCCC)n1 [Compound S14S15D1]	0.0%	0.1%
CCCCCCCCCCCCCCCSc1nc(NCCN2CCOCC2)nc(SCCCCCCCCCCCCCC)n1 [Compound S14S15D2]	0.0%	0.1%
CCCCCCCCCCCCCCCSc1nc(NCCN2CCCC2)nc(SCCCCCCCCCCCCCC)n1 [Compound S14S15D3]	0.0%	0.3%
